Key:
[1] = system: goosegrass (Eleusine indica); assay: Glasshouse trial, control of goosegrass, post-emergence application; assay type: in vivo; design: key: % weed control; expected = A+B−(A×B/100) (Colby); conditions: for Actual (weed control): X-77 0.1% v/v, * indicates synergy
Method: (§1) In the following tests, herbicides were applied at reduced field rates because herbicide effects are magnified in a glasshouse environment. The rates tested were selected to give between about 50 and 70% control with herbicides applied alone, so that any synergistic effect could be readily detected when testing mixtures. A glasshouse trial was carried out. Goosegrass seeds were sown into standard glasshouse potting mix (1:1 v/v Promix: Vero sand soil) contained in 10 cm square plastic pots. Treatments were replicated three times. Mesotrione (in the form Callisto® 480SE) was applied post-emergence to goosegrass (Eleusine indica) at either 100 g ai/ha or 200 g ai/ha with or without ethofumesate (in the form Prograss®). When used, ethofumesate was applied at a rate of 210 g ai/ha, 420 g ai/ha or 840 g ai/ha. The adjuvant system was X-77 at 0.1% v/v in deionised water. 200 litres of herbicide/adjuvant system was used per hectare. General weed control was evaluated at 7 and 14 days after treatment (DAT). It is noted that all herbicides were applied at reduced field rates because herbicide effects are magnified in a glasshouse environment. Rates were chosen to give a 50 to 70% level of control with herbicides applied alone as this allows for detection of any synergistic effect when tank mixtures are used. The results were evaluated using the Colby formula. The expected result for (A+B) is (A+B)−(A×B/100) where A and B are the ‘observed’ results for A and B on their own.

[2] = system: Medicago lupulina (black medic); assay: Glasshouse trial, control of black medic, post-emergence application; assay type: in vivo; conditions: ethofumesate 210 g ai/ha plus mesotrione at 100 g ai/ha
Method: as §1, with “A” for “In the following tests, herbicides were applied at reduced field rates because herbicide effects are magnified in a glasshouse environment. The rates tested were selected to give between about 50 and 70% control with herbicides applied alone, so that any synergistic effect could be readily detected when testing mixtures. A”, “own. […] A glasshouse trial was carried out as described in Example 1, except that Medicago lupulina (black medic) was used in place of goosegrass, and only one rate combination was tested.” for “own.”

[3] = ethofumesate 210 g ai/ha plus mesotrione at 200 g ai/ha
[4] = ethofumesate 420 g ai/ha plus mesotrione at 100 g ai/ha
[5] = ethofumesate 420 g ai/ha plus mesotrione at 200 g ai/ha
[6] = ethofumesate 840 g ai/ha plus mesotrione at 100 g ai/ha
[7] = ethofumesate 840 g ai/ha plus mesotrione at 200 g ai/ha

Structure (SMILES): CCOC1Oc2ccc(OS(C)(=O)=O)cc2C1(C)C (racemic) [Ethofumesate, (±)-2-ethoxy-2,3-dihydro-3,3-dimethylbenzofuran-5-yl methanesulfonate]
- Expected (weed control, Colby formula) [1, 3]: 30
- Actual (weed control) [1, 3]: 45*
- Expected (weed control, Colby formula) [1, 4]: 25
- Actual (weed control) [1, 4]: 37*
- Expected (weed control, Colby formula) [1, 5]: 30
- Actual (weed control) [1, 5]: 52*
- Expected (weed control, Colby formula) [1, 6]: 25
- Actual (weed control) [1, 6]: 55*
- Expected (weed control, Colby formula) [1, 7]: 30
- Actual (weed control) [1, 7]: 72*
- Expected (weed control, Colby formula) [2]: 85
- Actual (weed control) ([2]; * indicates synergy): 94*

Source: US20100311585A1, “HERBICIDAL COMPOSITION AND METHOD OF USE THEREOF” (SYNGENTA CROP PROTECTION, INC., priority 2007, published 2010)
